Measured values as given in patent publication US7294635B2 (Portola Pharmaceuticals, Inc., priority 2003, dated 2007).

System: ADP-induced human platelet aggregation
Test: Inhibition of ADP-mediated platelet aggregation in vitro using platelet-rich plasma (PRP assay)
Format: cell-based
Conditions: 5 min; human platelet-rich plasma, 2 μM ADP, 96-well microtiter, OD 650 nm at 5 min; read-out: Activity in the PRP assay
Method in brief: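 Human PRP (2-4×10^8 platelets/mL) preincubated ~5 min with compound (0.6% DMSO), then 2 μM ADP added; plates shaken 5 min at room temperature. Aggregation from OD650 decrease between 0 and 5 min, as % of ADP control corrected for unaggregated controls.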

Row | Compound | IC50
1 | CNc1cc2ccn(-c3ccc(NC(=O)NS(=O)(=O)c4ccc(Cl)s4)c(OCC(F)(F)F)c3)c(=O)c2cc1F [Example 89, 5-chloro-N-({[4-[7-fluoro-6-(methylamino)-1-oxoisoquinolin-2(1H)-yl]-2-(2,2,2-trifluoroethoxy)phenyl]amino}carbonyl)thiophene-2-sulfonamide] | < 10 µM
2 | CCOc1cc(-n2ccc3cc(NC)c(F)cc3c2=O)ccc1NC(=O)NS(=O)(=O)c1ccc(Cl)s1 [Example 90, 5-chloro-N-[({2-ethoxy-4-[7-fluoro-6-(methylamino)-1-oxoisoquinolin-2(1H)-yl]phenyl}amino)carbonyl]thiophene-2-sulfonamide] | < 10 µM
3 | CNc1cc2ccn(-c3ccc(NC(=O)NS(=O)(=O)c4ccc(Cl)s4)c(OCCOC)c3)c(=O)c2cc1F [Example 91, 5-chloro-N-({[4-[7-fluoro-6-(methylamino)-1-oxoisoquinolin-2(1H)-yl]-2-(2-methoxyethoxy)phenyl]amino}carbonyl)thiophene-2-sulfonamide] | < 10 µM
4 | CNc1cc2ccn(-c3ccc(NC(=O)NS(=O)(=O)c4ccc(Cl)s4)c(C(C)C)c3)c(=O)c2cc1F [Example 92, 5-chloro-N-[({4-[7-fluoro-6-(methylamino)-1-oxoisoquinolin-2(1H)-yl]-2-isopropylphenyl}amino)carbonyl]thiophene-2-sulfonamide] | 10 to 30 µM
5 | CNc1cc2ccn(-c3ccc(NC(=O)NS(=O)(=O)c4ccc(Cl)s4)c(OCCN(C)C)c3)c(=O)c2cc1F [Example 93, 5-chloro-N-[({2-[2-(dimethylamino)ethoxy]-4-[7-fluoro-6-(methylamino)-1-oxoisoquinolin-2(1H)-yl]phenyl}amino)carbonyl]thiophene-2-sulfonamide] | < 10 µM
6 | CNc1cc2ccn(-c3ccc(NC(=O)NS(=O)(=O)c4ccc(Cl)s4)c(C4CC4)c3)c(=O)c2cc1F [Example 94, 5-chloro-N-[({2-cyclopropyl-4-[7-fluoro-6-(methylamino)-1-oxoisoquinolin-2(1H)-yl]phenyl}amino)carbonyl]thiophene-2-sulfonamide] | < 10 µM
7 | CNc1cc2ccn(-c3ccc(NC(=O)NS(=O)(=O)c4ccc(Cl)s4)cc3C(F)(F)F)c(=O)c2cc1F [Example 95, 5-chloro-N-({[4-[7-fluoro-6-(methylamino)-1-oxoisoquinolin-2(1H)-yl]-3-(trifluoromethyl)phenyl]amino}carbonyl)thiophene-2-sulfonamide] | > 30 µM
8 | CNc1cc2ccn(-c3cc(C)c(NC(=O)NS(=O)(=O)c4ccc(Cl)s4)c(C)c3)c(=O)c2cc1F [Example 96, 5-chloro-N-[({4-[7-fluoro-6-(methylamino)-1-oxoisoquinolin-2(1H)-yl]-2,6-dimethylphenyl}amino)carbonyl]thiophene-2-sulfonamide] | < 10 µM
9 | CNc1cc2ccn(-c3ccc(NC(=O)NS(=O)(=O)c4ccc(Cl)s4)c(C(F)(F)F)c3)c(=O)c2cc1F [Example 97, 5-chloro-N-({[4-[7-fluoro-6-(methylamino)-1-oxoisoquinolin-2(1H)-yl]-2-(trifluoromethyl)phenyl]amino}carbonyl)thiophene-2-sulfonamide] | < 10 µM
10 | CNc1cc2ccn(-c3ccc(NC(=O)NS(=O)(=O)c4ccc(Cl)s4)c(C(=O)OC)c3)c(=O)c2cc1F [Example 98, methyl 2-[({[(5-chlorothien-2-yl)sulfonyl]amino}carbonyl)amino]-5-[7-fluoro-6-(methylamino)-1-oxoisoquinolin-2(1H)-yl]benzoate] | < 10 µM
11 | CNc1cc2ccn(-c3ccc(NC(=O)NS(=O)(=O)c4ccc(Cl)s4)c(C(=O)O)c3)c(=O)c2cc1F [Example 99, 2-[({[(5-chlorothien-2-yl)sulfonyl]amino}carbonyl)amino]-5-[7-fluoro-6-(methylamino)-1-oxoisoquinolin-2(1H)-yl]benzoic acid] | < 10 µM
12 | CNc1cc2ccn(-c3cc(C)c(NC(=O)NS(=O)(=O)c4ccc(Cl)s4)c(C(C)C)c3)c(=O)c2cc1F [Example 100, 5-chloro-N-[({4-[7-fluoro-6-(methylamino)-1-oxoisoquinolin-2(1H)-yl]-2-isopropyl-6-methylphenyl}amino)carbonyl]thiophene-2-sulfonamide] | 10 to 30 µM
13 | CNc1cc2ccn(-c3cc(C)c(NC(=O)NS(=O)(=O)c4ccc(Cl)s4)c(C(=O)OC)c3)c(=O)c2cc1F [Example 101, methyl 2-[({[(5-chlorothien-2-yl)sulfonyl]amino}carbonyl)amino]-5-[7-fluoro-6-(methylamino)-1-oxoisoquinolin-2(1H)-yl]-3-methylbenzoate] | < 10 µM
14 | CNc1cc2ccn(-c3ccc(NC(=O)NS(=O)(=O)c4ccc(Cl)s4)c(S(C)(=O)=O)c3)c(=O)c2cc1F [Example 102, 5-chloro-N-({[4-[7-fluoro-6-(methylamino)-1-oxoisoquinolin-2(1H)-yl]-2-(methylsulfonyl)phenyl]amino}carbonyl)thiophene-2-sulfonamide] | > 30 µM
15 | CNc1cc2ccn(-c3ccc(NC(=O)NS(=O)(=O)c4ccc(Cl)s4)c(Cl)c3)c(=O)c2cc1F [Example 103, 5-chloro-N-[({2-chloro-4-[7-fluoro-6-(methylamino)-1-oxoisoquinolin-2(1H)-yl]phenyl}amino)carbonyl]thiophene-2-sulfonamide] | < 10 µM
16 | CNc1c(F)cc2c(=O)n(-c3ccc(NC(=O)NS(=O)(=O)c4ccc(Cl)s4)cc3)ccc2c1Br [Example 109, N-[({4-[5-bromo-7-fluoro-6-(methylamino)-1-oxoisoquinolin-2(1H)-yl]phenyl}amino)carbonyl]-5-chlorothiophene-2-sulfonamide] | > 30 µM
17 | CNc1c(F)cc2c(=O)n(-c3ccc(NC(=O)NS(=O)(=O)c4ccc(Cl)s4)cc3)ccc2c1C#N [Example 118, 5-chloro-N-[({4-[5-cyano-7-fluoro-6-(methylamino)-1-oxoisoquinolin-2(1H)-yl]phenyl}amino)carbonyl]thiophene-2-sulfonamide] | 10 to 30 µM
18 | CNc1c(F)cc2c(=O)n(-c3ccc(NC(=O)NS(=O)(=O)c4ccc(Cl)s4)cc3)ccc2c1C [Example 120, 5-chloro-N-[({4-[7-fluoro-5-methyl-6-(methylamino)-1-oxoisoquinolin-2(1H)-yl]phenyl}amino)carbonyl]thiophene-2-sulfonamide] | < 10 µM
